This is an account of results in patent publication US4056540A, “4-Phenyl-1,3-benzodioxans” (Bristol-Myers Company, priority 1975, dated 1977).

Data set [1] relates to ouabain-induced ventricular arrhythmias. Nature of the data set: Reversion of ouabain-induced arrhythmia in anesthetized dogs. The data set is classed as in vivo, dog. The settings on record: for ED100: Canis lupus familiaris, 0.5 h, read-out: I. V. Reverting Dose. Here is the method: The compounds were also tested in dogs for their reversion activity in ouabain-induced arrhythmia.
(§1) Anesthetized dogs were used for the production of ouabain-induced ventricular arrhythmias. The arrhythmia consisted of a nodal or ventricular tachycardia. The procedure used to establish the arrhythmia as well as the criteria employed to determine anti-arrhythmic activity generally was that employed by Lucchesi et al. ^1
1. Lucchesi, B. L. and H. F. Hardman: The influence of dichloroisoproterenol (DCI) and related compounds upon ouabain and acetylstrophanthidin induced cardiac arrhythmias.

The nature of data set [2]: Effect on aortic blood pressure in the ouabain-arrhythmia anesthetized dog. The format is in vivo. The settings on record: iv; for effect on aortic blood pressure: result in words. Here is the method:
as §1
Anti-arrhythmic activity of the compounds was determined by rapid intravenous injection and compared to lidocaine, disopyramide and aprindine The average prolonged reversion doses are shown below: […]

Data set [3] relates to pentylenetetrazole lethality. Nature of the data set: Pentylenetetrazol Standard Dose, mouse. The settings on record: for ED50: 1 h, mouse, po, pentylenetetrazol 125 mg/kg ip, prevention of lethality (footnote 5); for effectiveness against pentylenetetrazole: result in words, species not given. The format is in vivo. An excerpt: (§2) There were at least 3 animals per
(§3) Prevention of lethality was used as criterion for […]

Another data set has as its system audiogenic seizures. Briefly: Audiogenic Seizures, mouse. The format is in vivo. The following applies: for ED50: 1 h, po, read-out: ED50 Audiogenic Seizure Mouse; for blocking of tonic convulsions induced by audiogenic seizures: result in words. The procedure: (§4) ^1 Test compounds including reference agents were administered orally
(§5) either as water solutions or as fine suspensions in Tween by gastric
(§6) intubation 60 min prior to the test. There were at least 3 animals per
^3 Audiogenic Seizures - Mice, which were genetically bred for the
susceptability to sound induced seizures (O'Grady Farms) were placed into
the sound attenuated box and exposed to a 120 sec sound stimulus of 85 db
and 10,000 c/sec frequincy. Prevention of tonic extension of hind limbs
was used as a criterion for drug effect.

For data set [4], the system named is tonic convulsions induced by maximal electroshock. Nature of the data set: Maximal Electroshock Test, mouse. The data set is classed as in vivo. The settings on record: for ED50: 1 h, po, read-out: ED50 Maximal Electroshock Mouse; for blocking of tonic convulsions induced by maximal electroshock: result in words, species not given. The procedure:
as §4, §5, §6
(§7) ^2 Maximal Electroshock Test - Animals were subjected to an 80mA shoc
(§8) of 0.5 sec duration by a means of corneal electrodes using the specially
(§9) designed apparatus manufactured by Wahlquist Instrument Co. Prevention of
(§10) tonic extension by hind limbs was used as a criterion for drug effect.
In general terms: Protection in the maximal electroshock model is a classic sign of anticonvulsant action.

Data set [5] deals with pentylenetetrazole lethality. Nature of the data set: Pentylenetetrazol Standard Dose, rat. The format is in vivo. The following applies: 1 h, po, pentylenetetrazol 125 mg/kg ip, prevention of lethality (footnote 5).
Source text: as §2, §3

Data set [6] deals with tonic convulsions induced by maximal electroshock. Nature of the data set: Maximal Electroshock Test, rat. The following applies: 1 h, po, read-out: ED50 Maximal Electroshock Rat. The data set is classed as in vivo. The procedure:
as §4, §5, §6, §7, §8, §9, §10

Another data set in a line: in vivo. The settings on record: mouse, po, 24 hours observation.
Data set [7] concerns pentylenetetrazole convulsions. Nature of the data set: Pentylenetetrazol Infusion (Mouse). The data set is classed as in vivo. The settings on record: for ED50: 1 h, po, read-out: ED50 Pentylenetetrazole Mouse (infusion); for antagonism of all the excitatory signs induced by pentylenetetrazol: clonic and tonic convulsions and lethality, result in words.
Source text: as §2
^4 Pentylenetetrazol Infusion (Mouse) - The procedure originally
described by Orloff, M. H. et al., Proc. Soc. Exp. Biol. 70:254 (1949) an
adopted by our laboratories was used.

The mark [8] stands for this setting: anesthetized dog, rapid intravenous injection, IV ED100, normal sinoatrial rhythm for greater than 30 mins.
The mark [9] stands for this setting: mouse, 60 min prior to test, prevention of tonic extension.
Setting [10] is: mouse, 60 min prior to test, prevention of tonic extension of hind limbs.
[11] abbreviates: rat, 60 min prior to test, prevention of tonic extension of hind limbs.
Where [12] appears, read: mouse, pentylenetetrazol infusion (footnote 4).

The structures appear in SMILES notation. Counter-ions that a name gives are not always drawn. Like-named read-outs stand apart in the source and are kept apart here.

Source text for in vivo: hours following drug administration.

With `CC(C)NC(=O)[C@@H]1Oc2ccc(Cl)cc2[C@@H](c2ccccc2)O1` (relative stereo) [BL-3374], the ED100 in data set [1] (setting [8]) was greater than 10 mg/kg.

`CN(C)CCCNC(=O)[C@H]1Oc2ccc(Cl)cc2[C@@H](c2ccccc2)O1.Cl` (relative stereo) [BL-4971A, cis-6-Chloro-4-phenyl-N-(3-dimethylaminopropyl)1,3-benzodioxan-2-carboxamide hydrochloride]: the ED100 in data set [1] (setting [8]) came out at 5 mg/kg. Further, in data set [2], the “effect on aortic blood pressure” value is “No appreciable effect”.

In the case of `CC(C)NC[C@@H]1Oc2ccc(Cl)cc2[C@H](c2ccccc2)O1` (relative stereo) [BL-3396, cis-6-Chloro-4-phenyl-2-(2-propylaminomethyl)-1,3-benzodioxan hydrochloride], the ED50 in data set [3] was greater than 50 mg/kg; in the data set with audiogenic seizures (setting [9]), 2.5 mg/kg; in data set [4] (setting [10]) it was 10 mg/kg; in data set [5], greater than 40 mg/kg; in data set [6] (setting [11]), 10 mg/kg; in [7] (setting [12]), 3 mg/kg. In the data set “in vivo”, the LD50 at 24 h was found to be 400 mg/kg.

As to `CN(C)CCCNC(=O)[C@H]1Oc2ccccc2[C@@H](c2ccccc2)O1.Cl` (relative stereo) [BL-4981A, cis-4-Phenyl-N-(3-dimethylaminopropyl)-1,3-benzodioxan-2-carboxamide hydrochloride], the ED100 in data set [1] (setting [8]) was greater than 10 mg/kg.

Regarding `CC(C)N(CCC(C(N)=O)(c1ccccc1)c1ccccn1)C(C)C` (centres unmarked) [Disopyramide, reference compound], in data set [1] (setting [8]), the ED100 is 4.5 ± 1.3 mg/kg.

On to `O=C1NC(=O)C(c2ccccc2)(c2ccccc2)N1` [Diphenylhydantoin Na, reference compound], for which the median effective dose (ED50) is greater than 50 mg/kg in [3]; 10 mg/kg in the data set on audiogenic seizures (setting [9]); 10 mg/kg in data set [4] (setting [10]); 40 mg/kg in data set [5]; 30 mg/kg in [6] (setting [11]); 20 mg/kg in data set [7] (setting [12]).

Turning to `CN(C)CCCNC(=O)[C@H]1Oc2ccc(Cl)cc2[C@H](c2ccccc2)O1.Cl` (relative stereo) [BL-4932A, trans-6-Chloro-4-phenyl-N-(3-dimethylaminopropyl)-1,3-benzodioxan-2-carboxamide hydrochloride], in [1] (anesthetized dog, iv, transient reversion only (N=2)), the Transient reversion at was 10 mg/kg. Further, the “transient fall in aortic blood pressure” value in data set [2] (at 10 mg/kg (N=2)) is recorded as 50 mmHg.

Regarding `CN1C(=O)CN=C(c2ccccc2)c2cc(Cl)ccc21` [Diazepam, reference compound], the ED50 in the data set with audiogenic seizures (Mus musculus) was found to be 0.5 mg/kg; in [4] (Mus musculus), 6 mg/kg; in data set [6] (Rattus norvegicus), 10 mg/kg. Also, in data set [7], the “antagonism of all the excitatory signs induced by pentylenetetrazol” value (“antagonism” for short) is reported as “able to antagonize all the excitatory signs”.

For `NC[C@@H]1Oc2ccc(Cl)cc2[C@H](c2ccccc2)O1` (relative stereo) [BL-3069], the effectiveness against pentylenetetrazole entry in data set [3] is recorded as “practically ineffective”. Moreover, in the data set with audiogenic seizures, the “blocking of tonic convulsions induced by audiogenic seizures” value (“blocking … by audiogenic seizures” for short) is “effective blocking agents of tonic convulsions”. Also, the ED50 is 25 mg/kg in data set [4] (setting [10]), greater than 40 mg/kg in [5], greater than 20 mg/kg in [6] (setting [11]) and 12 mg/kg in data set [7] (setting [12]). Besides, the “blocking of tonic convulsions induced by maximal electroshock” value (“blocking … by maximal electroshock” below) in data set [4] is listed as “effective blocking agents of tonic convulsions”. The compound also displayed a median lethal dose (LD50) at 24 h in “in vivo” of 300 mg/kg.

On to `CNC[C@H]1Oc2ccc(Cl)cc2[C@@H](c2ccccc2)O1.Cl` (relative stereo) [BL-3168, cis-6-Chloro-2-methylaminomethyl-4-phenyl-1,3-benzodioxan hydrochloride], for which the ED50 in [3] was greater than 50 mg/kg; in the data set with audiogenic seizures (setting [9]), 2.5 mg/kg; in data set [4] (setting [10]), 10 mg/kg; in [5], greater than 40 mg/kg; in [6] (setting [11]), 15 mg/kg; in data set [7] (setting [12]), 5 mg/kg. Moreover, the effectiveness against pentylenetetrazole entry in [3] was “practically ineffective”. Also, the “blocking … by audiogenic seizures” value with audiogenic seizures is reported as “effective blocking agents of tonic convulsions”. In data set [1] (setting [8]), the ED100 was greater than 10 mg/kg. Moreover, the “blocking … by maximal electroshock” value in data set [4] is reported as “effective blocking agents of tonic convulsions”. In data set [2], the “Decrease in mean aortic pressure” value is given as 20 mmHg. Also, the LD50 at 24 h in the data set “in vivo” is 300 mg/kg.

With `CCN(CC)CCCN(c1ccccc1)C1Cc2ccccc2C1` [Aprindine, reference compound], the ED100 in [1] (setting [8]) was 2.46 ± 0.83 mg/kg.

On to `CNC[C@@H]1Oc2ccc(Cl)cc2[C@@H](c2ccccc2)O1` (relative stereo) [BL-3100], for which the ED100 in [1] (setting [8]) is greater than 10 mg/kg. Besides, in data set [2], the “Decrease in mean aortic pressure” value is on record as 50 mmHg.

As to `CN1C(=O)OC(C)(C)C1=O` [Trimethadione, reference compound], the ED50 was 400 mg/kg in data set [3]; 150 mg/kg in the data set with audiogenic seizures (setting [9]); greater than 400 mg/kg in data set [4] (setting [10]); 100 mg/kg in [5]; 300 mg/kg in data set [6] (setting [11]); 200 mg/kg in [7] (setting [12]). Also, in “in vivo”, the 50% lethal dose (LD50) at 24 h amounted to 2170 mg/kg. The “antagonism” value in [7] was “able to antagonize all the excitatory signs”.

As for `CNC(=O)[C@@H]1Oc2ccc(Cl)cc2[C@@H](c2ccccc2)O1` (relative stereo) [BL-3167], in data set [1] (setting [8]), the ED100 was greater than 10 mg/kg.

For the compound `CC(C)NC[C@@H]1Oc2ccccc2[C@@H](c2ccccc2)O1` (relative stereo) [BL-3394], in [1] (setting [8]), the ED100 was roughly 10 mg/kg. Moreover, the “effect on aortic blood pressure” value in data set [2] was “gressive fall in aortic”.

On to `CC(C)NC[C@H]1Oc2ccc(Cl)cc2[C@H](c2ccccc2F)O1.Cl` (relative stereo) [BL-3681A, trans-6-Chloro-4-(2-fluorophenyl)-2-(2-propylaminomethyl)-1,3-benzodioxan hydrochloride], for which the 50% effective dose (ED50) is greater than 50 mg/kg in [3]; 10 mg/kg in the data set on audiogenic seizures (setting [9]); 12 mg/kg in [4] (setting [10]); greater than 40 mg/kg in [5]; 15 mg/kg in data set [6] (setting [11]); 12 mg/kg in [7] (setting [12]). Also, the effectiveness against pentylenetetrazole result in data set [3] is given as “practically ineffective”. In addition, the “blocking … by audiogenic seizures” value with audiogenic seizures is reported as “effective blocking agents of tonic convulsions”. Further, the “blocking … by maximal electroshock” value in [4] is “effective blocking agents of tonic convulsions”. The compound further gave an LD50 at 24 h in the data set “in vivo” of 300 mg/kg.

Regarding `CCN(CC)CC(=O)Nc1c(C)cccc1C` [Lidocaine, reference compound], the ED100 in data set [1] (iv) came out at 6.4 ± 1.4 mg/kg.

As to `CC(C)NC[C@@H]1Oc2ccccc2[C@H](c2ccccc2)O1` (relative stereo) [BL-3418], the ED100 in [1] (setting [8]) was 3 to 5 mg/kg.

Regarding `CNC(=O)[C@@H]1Oc2ccc(Cl)cc2[C@H](c2ccccc2)O1` (relative stereo) [BL-4093], the ED100 in data set [1] (setting [8]) is greater than 10 mg/kg.

Consider `CC(C)NC[C@@H]1Oc2ccc(Cl)cc2[C@@H](c2ccccc2)O1` (relative stereo) [BL-3379], for which the ED100 in data set [1] (setting [8]) is greater than 10 mg/kg.

Consider `CCC1(c2ccccc2)C(=O)NC(=O)NC1=O` [Phenobarbital Na, reference compound], for which the median effective dose (ED50) in [3] stood at 15 mg/kg; with audiogenic seizures (Mus musculus), 2.5 mg/kg; in data set [4] (Mus musculus), 10 mg/kg; in data set [5], 20 mg/kg; in data set [6] (Rattus norvegicus), 8 mg/kg; in data set [7] (Mus musculus) it was 8 mg/kg. Moreover, the median lethal dose (LD50) at 24 h in the data set “in vivo” was found to be 265 mg/kg. Also, in [7], the “antagonism” value is listed as “able to antagonize all the excitatory signs”.

As usually defined, the ED50 is the midpoint of the dose-response relation. What is called LD50 is the dose expected to kill half of the subjects tested. A high value points to a less toxic substance.
